Like-named read-outs stand apart in the source and are kept apart here.
Key:
[1] = system: MRSA 252 biofilms; assay: Biofilm prevention, crystal violet; format: cell-based, S. aureus; conditions: 50 μg/mL
Description: The potential of the lead compounds to both inhibit S. aureus biofilm growth and to disrupt more established biofilms was next investigated. Since previous studies had determined each compounds MIC against planktonic MRSA bacteria, it was hypothesized that a compound concentration of 50 μg/mL (at or above the MIC of all lead compounds except 2) was a reasonable concentration to begin the study.
Prevention: 100 μL of a mixture of TSB supplemented with 0.5% glucose and antibiotic (1:1) was added to individual wells in 96-well plate. The wells were then inoculated with […] an overnight culture of bacteria and incubated at 37° C. for 24 hours. Following the pre-determined length of time, the medium in each well was discarded, washed twice with PBS before 150 μL of a 1% crystal violet solution was added and the plate was left to incubate at room temperature for a further 30 minutes. Each well was then washed a further 4× with PBS before 200 μL 7% acetic acid was added. The absorbance of each well was then measured at OD595.

[2] = system: C. albicans ATCC 90028; assay: Anti-fungal MIC (CO-ADD); format: cell-based
Description: (§1) Fungal strains were cultured for 3 days on Yeast Extract-Peptone Dextrose (YPD) agar at 30° C. A yeast suspension of 1×10^6 to 5×10^6 CFU/mL (as determined by OD530) was prepared from five colonies. […] All plates were covered and incubated at 35° C. for 36 hours without shaking. […] The absorbance was measured using a Biotek Multiflo Synergy HTX plate reader. In both cases, the percentage of growth inhibition was calculated for each well, using the negative control (media only) and positive control (fungi without inhibitors) on the same plate. […] Due to a higher variance in growth and inhibition, a lower threshold was applied to the data for C. neoformans. In addition, the maximal percentage of growth inhibition is reported as DMax, indicating any compounds with marginal activity.

[3] = system: C. deuterogattii ATCC 32609; assay: Anti-fungal MIC (CO-ADD); format: cell-based
Description: as §1

[4] = system: C. glabrata ATCC 90030; assay: Anti-fungal MIC (CO-ADD); format: cell-based
Description: as §1

[5] = system: C. neoformans H99; ATCC 208821; assay: Anti-fungal MIC (CO-ADD); format: cell-based
Description: as §1

[6] = system: C. tropicalis ATCC 450; assay: Anti-fungal MIC (CO-ADD); format: cell-based
Description: as §1

[7] = system: C. tropicalis ATCC 750; assay: Anti-fungal MIC (CO-ADD); format: cell-based
Description: as §1

[8] = system: MRSA 252, MSSA 476, S. aureus 15981, P. aeruginosa PA01 and E. coli DH5α; assay: Disc diffusion primary screening, five strains (statements in words); format: cell-based; conditions: 500 μg/mL
Description: As such, the minimum inhibition concentration (MICs) of biologically active compounds were further assessed using the broth dilution method against the S. aureus strains; MRSA 252 and MSSA 476 (Table 1). The results of both assays enabled key structural elements and functional groups required for the compounds to retain their antibiotic activity to be identified.
The antibiotic activity was determined using a Kirby-Bauer method according to Clinical Standard Laboratory Institute (CSLI) Guidelines (2017). Briefly, 180 μL of a 1 in 200 dilution (in LB or TSB) of overnight cultures of selected Gram negative and Gram positive bacteria were applied to an agar plate containing the solid growth medium, Mueller-Hinton agar (MHA). Sterile discs, inoculated with 50 μL of antibiotic, were first added to the agar plate before the plates were incubated for 24 hours at 37° C. Following incubation, the zone of inhibition (if it existed) was recorded.

[9] = system: Pseudomonas aeruginosa PA01; assay: Disc diffusion (Kirby-Bauer), zone of inhibition; format: cell-based; conditions: 500 μg/mL, '/' = no zone
Procedure, shortened: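 Zones of inhibition recorded after 24 h at 37 °C on Mueller-Hinton agar. Agar was inoculated with 1 in 200 diluted 18 h broth cultures, and discs carried 50 μL of antibiotic. Method follows CLSI 2017 disc diffusion.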

[10] = system: S. aureus SH1000 cells; assay: DiSC3(5) membrane potential assay; format: cell-based; conditions: 16 μg/mL, 180 minutes
Description: We next looked to further confirm the cell membrane as being the target site of action for our compounds, by undertaking a membrane depolarization assay using the voltage sensitive dye, 3,3′-dipropylthiacarbocyanine iodide (DiSC3(5)).
[…] Cultures of SH1000 were grown to OD600 of 0.2 before being incubated further with 0.1 M KCl and 2 μM DiSC3(5) for 30 minutes at 37° C. […] Subsequently, the cells were centrifuged and 1 mL of supernatant mixed with 1 mL DMSO; the centrifuged pellet was lysed in DMSO for 10 minutes and added to equal volumes of HEPES and glucose buffer. Extracellular and intracellular fluorescence was measured on a LS 45 luminescence spectrometer (PerkinElmer) at an excitation and emission of 622 nm and 670 nm respectively. Consequently, the membrane potential was calculated using the Nernst equation and expressed as a percentage of the initial value.

[11] = Acid stability in 1M acetic acid (NMR, IR); format: physicochemical; conditions: 6 hours in 1M acetic acid (pH 2.37)
Description: Also, well documented in the literature, is the hydrolysis of isocyanide compounds to their corresponding formamide in acidic conditions. Due to the acidic conditions present in the stomach it was important to identify whether the lead compounds might hydrolyse to their corresponding formamide compounds in-vivo. To determine this, Compound 41 was stirred for 6 hours in 1M acetic acid (pH 2.37), mimicking the length of time oral drugs are present in the stomach. The NMR data obtained after 6 hours was identical to that of compound 41 before the assay (FIG. 18). In addition to the NMR, IR analysis further confirmed the presence of the isocyanide group post treatment with acid, as shown by the sharp signal at approximately 2100 cm^−1.

[12] = Candida albicans, ATCC90028, read-out: MIC
[13] = Nakaseomyces glabratus, ATCC90030, read-out: MIC
[14] = Cryptococcus neoformans, ATCC208821, read-out: MIC
[15] = Candida tropicalis, ATCC450, read-out: MIC
[16] = Candida tropicalis, ATCC750, read-out: MIC

| Compound | prevention of MRSA 252 biofilm growth [1] | MIC [2, 12] [µg/mL] | MIC ([3]; read-out: MIC) [µg/mL] | MIC [4, 13] [µg/mL] | MIC [5, 14] [µg/mL] | MIC [6, 15] [µg/mL] | MIC [7, 16] [µg/mL] | antibiotic activity in disc diffusion assays (in words) [8] | zone of inhibition at 500 µg/mL [9] [mm] | reduction in the proton motive force [10] [%] | NMR data after acid exposure [11] | MIC [2] [µg/mL] | MIC [3] [µg/mL] | MIC [4] [µg/mL] | MIC [5] [µg/mL] | MIC [6] [µg/mL] | MIC [7] [µg/mL] |
| --- | --- | --- | --- | --- | --- | --- | --- | --- | --- | --- | --- | --- | --- | --- | --- | --- | --- |
| [C-]#[N+]C=Cc1ccc(O)cc1 [Compound 2, 4-(2-Isocyanovinyl)phenol] | entirely prevented biofilm formation |  |  |  |  |  |  |  |  |  |  |  |  |  |  |  |  |
| [C-]#[N+]C=Cc1cc(Br)ccc1O [Compound 13] |  | 4 to 8 | 4 | > 32 | 4 to 8 | 4 | 16 |  |  |  |  |  |  |  |  |  |  |
| [C-]#[N+]C=Cc1ccc(O)c(Br)c1 [Compound 14] |  | 32 | 32 | > 32 | > 32 | > 32 | > 32 |  |  |  |  |  |  |  |  |  |  |
| [C-]#[N+]/C=C/c1ccc(O)cc1/C=C/c1ccccc1 [Compound 36, 4-((E Z)-2-Isocyanovinyl)-3-((E)-styryl)phenol] |  | 16 | 2 | 32 | 4 to 8 | 2 | 32 | retained antibiotic activity |  |  |  |  |  |  |  |  |  |
| [C-]#[N+]/C=C/c1ccc(NC(C)=O)cc1/C=C/c1ccccc1 [Compound 41, N-(4-((E)-2-Isocyanovinyl)-3-((E)-styryl)phenyl)acetamide] |  | 2 to 4 | 1 to 2 | 32 | 2 | 1 to 2 | 32 | excellent activity against all three S. aureus strains, as well as P. aeruginosa PAO1 | 16 | 70 | identical |  |  |  |  |  |  |
| (2-Isocyanovinyl)-4-acetaamido benzene [Compound 22] |  |  |  |  |  |  |  |  |  |  |  | 16 | >32 | >32 | >32 | >32 | >32 |

Reference: patent US20240246905A1 (University of Leicester, priority 2021, published 2024)
